Experimental data as given in patent US20040082551A1, “Novel pyrazoles and their use as p38 kinase inhibitors” (priority 2002, published 2004).
Where “and” joins values, the source holds several entries; their conditions need not be identical. Identical values can stand only once. Counter-ions that a name gives are not always drawn.

What follows are molecules tested against T1, human p38 kinase alpha (Homo sapiens, UniProt Q16539) (assay: In vitro p38 kinase inhibition analysis (PHAS-I 32P-ATP or EGFRP 33P-ATP format)). Conditions: Table 1; compounds of Examples 1-28; one of two in vitro assay methods; 4-methylbenzenesulfonate; read-out: p38α Kinase Inhibition (IC50 in μM).
T1 construct: The coding region of the human p38α cDNA was obtained by PCR-amplification from RNA isolated from the human monocyte cell line THP.1; made in house; host or cells: E. coli DH10B
T1 sequence (Q16539 whole entry): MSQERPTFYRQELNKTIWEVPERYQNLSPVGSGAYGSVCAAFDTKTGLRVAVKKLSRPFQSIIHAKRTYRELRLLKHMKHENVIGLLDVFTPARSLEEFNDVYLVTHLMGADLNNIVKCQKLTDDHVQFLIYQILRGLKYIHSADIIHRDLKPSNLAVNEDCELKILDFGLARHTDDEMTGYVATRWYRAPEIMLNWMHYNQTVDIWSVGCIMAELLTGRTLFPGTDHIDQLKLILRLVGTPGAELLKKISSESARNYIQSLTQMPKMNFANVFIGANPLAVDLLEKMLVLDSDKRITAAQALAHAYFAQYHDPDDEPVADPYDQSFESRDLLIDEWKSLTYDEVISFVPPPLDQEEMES
Assay type: biochemical
Description: The ability of compounds to inhibit human p38 kinase alpha was evaluated using one of two in vitro assay methods. In the first method, activated human p38 kinase alpha phosphorylates a biotinylated substrate, PHAS-I (phosphorylated heat and acid stable protein-insulin inducible), in the presence of gamma ^32P-ATP (^32P-ATP). PHAS-I was biotinylated before the assay, and provided a means of capturing the substrate which was phosphorylated during the assay. p38 Kinase was activated by MKK6. Compounds were tested in 10 fold serial dilutions over the range of 100 μM to 0.001 μM using 1% DMSO. Each concentration of inhibitor was tested in triplicate.
All reactions were carried out in 96 well polypropylene plates. Each reaction well contained 25 mM HEPES pH 7.5, 10 mM magnesium acetate, and 50 μM unlabeled ATP. […] Activated human p38 kinase alpha was used at 1 μg per 50 μl reaction volume, representing a final concentration of 0.3 μM. Gamma ^32P-ATP was used to follow the phosphorylation of PHAS-I. ^32P-ATP has a specific activity of 3000 Ci/mmol, and was used at 1.2 μCi per 50 μl reaction volume. The reaction proceeded either for one hr or overnight at 30° C.
Following incubation, 20 μl of reaction mixture was transferred to a high capacity streptavidin coated filter plate (SAM-streptavidin-matrix, Promega) prewetted with phosphate buffered saline. The transferred reaction mix was allowed to contact the streptavidin membrane of the Promega plate for 1-2 min. […] Filter plates were air dried and 20 μl of scintillant was added. The plates were sealed and counted.
A second assay format was alternatively employed. This assay is based on p38 kinase alpha being induced phosphorylation of EGFRP (epidermal growth factor receptor peptide, a 21 mer) in the presence of ^33P-ATP. Compounds were tested in 10 fold serial dilutions over the range of 100 μM to 0.001 μM in 10% DMSO. Each concentration of inhibitor was tested in triplicate. Compounds were evaluated in 50 μl reaction volumes in the presence of 25 mM HEPES pH 7.5, 10 mM magnesium acetate, 4% glycerol, 0.4% bovine serum albumin, 0.4 mM DTT, 50 μM unlabeled ATP, 25 μg EGFRP (200 μM), and 0.05 uCi gamma ^33P-ATP. Reactions were initiated by addition of 0.09 μg of activated, purified human GST-p38 kinase alpha. Activation was carried out using GST-MKK6 (5:1,p38:MKK6) for one hr at 30° C. in the presence of 50 μM ATP. Following incubation for 60 min at room temperature, the reaction was stopped by addition of 150 μl of AG 1×8 resin in 900 mM sodium formate buffer, pH 3.0 (1 volume resin to 2 volumes buffer). The mixture was mixed three times with pipetting. Afterward, the resin was allowed to settle. A total of 50 μl of clarified solution head volume was transferred from the reaction wells to Microlite-2 plates. 150 μl of Microscint 40 was then added to each well of the Microlite plate, and the plate was sealed, mixed, and counted.

| Structure (SMILES) | IC50 |
| --- | --- |
| C[C@@H](N[C@H]1CC[C@H](c2[nH]nc(-c3ccc(Cl)cc3)c2-c2ccncn2)CC1)c1ccccc1 [Example 2, 4-[3-(4-chlorophenyl)-4-pyrimidin-4-yl-1H-pyrazol-5-yl]-N-[(1R)-1-phenylethyl]-trans-cyclohexanamine 4-methylbenzenesulfonate] | 0.0279 µM |

Same assay, conditions: Table 1; compounds of Examples 1-28; one of two in vitro assay methods; Hydrochloride Hydrate; read-out: p38α Kinase Inhibition (IC50 in μM)

| IC50 | Structure (SMILES) |
| --- | --- |
| 0.0354 µM | OC[C@H]1CCCN1[C@H]1CC[C@H](c2[nH]nc(-c3ccc(Cl)cc3)c2-c2ccncn2)CC1 [Example 10, ((2R)-1-{4-[3-(4-chlorophenyl)-4-pyrimidin-4-yl-1H-pyrazol-5yl]cyclohexyl}pyrrolidin-2-yl)methanol Hydrochloride Hydrate] |
| 0.0379 µM | CN(CCO)[C@H]1CC[C@H](c2[nH]nc(-c3ccc(Cl)cc3)c2-c2ccncn2)CC1 [Example 12, 2-[{4-[3-(4-chlorophenyl)-4-pyrimidin-4-yl-1H-pyrazol-5-yl]cyclohexyl)(methyl)amino]ethanol Hydrochloride Hydrate] |

Same assay, conditions: Table 1; compounds of Examples 1-28; one of two in vitro assay methods; Phosphate Dihydrate; read-out: p38α Kinase Inhibition (IC50 in μM)

| Structure (SMILES) | IC50 |
| --- | --- |
| O=C(COP(=O)(O)O)N1CCC(c2[nH]nc(-c3ccc(Cl)cc3)c2-c2ccncn2)CC1 [Example 24, di-sodium 2-{4-[3-(4-chlorophenyl)-4-pyrimidin-4-yl-1H-pyrazol-5-yl]piperidin-1-yl}-2-oxoethyl Dihydrogen Phosphate Dihydrate] | 0.0608 µM |

Same assay, conditions: Table 1; compounds of Examples 1-28; one of two in vitro assay methods; Trifluoroacetate Hydrate; read-out: p38α Kinase Inhibition (IC50 in μM)

| IC50 | Structure (SMILES) |
| --- | --- |
| 0.0271 µM | CN(CCO)[C@H]1CC[C@H](c2[nH]nc(-c3ccc(Cl)cc3)c2-c2ccncn2)CC1 [Example 11, 2-[{4-[3-(4-chlorophenyl)-4-pyrimidin-4-yl-1 H-pyrazol-5-yl]cyclohexyl)(methyl)amino]ethanol Trifluoroacetate Hydrate] |

Same assay, conditions: Table 1; compounds of Examples 1-28; one of two in vitro assay methods; read-out: p38α Kinase Inhibition (IC50 in μM)

| IC50 | Structure (SMILES) |
| --- | --- |
| 0.209 µM | O=C(CO)N1CCC(c2[nH]nc(-c3ccc(Cl)cc3F)c2-c2ccncn2)CC1 [Example 27, 2-{4-[3-(4-chloro-2-fluorophenyl)-4-pyrimidin-4-yl-1H-pyrazol-5-yl]piperidin-1-yl}-2-oxoethanol] |
| 0.0189 µM | OC1CCCC1N1CCC(c2[nH]nc(-c3ccc(Cl)cc3)c2-c2ccncn2)CC1 (centres unmarked) [Example 17, 2-{4-[3-(4-chlorophenyl)-4-pyrimidin-4-yl-1H-pyrazol-5-yl]piperidin-1-yl}cyclopentanol Fumarate] |
| 0.289 µM | O[C@H]1CC[C@H](c2[nH]nc(-c3ccc(Cl)cc3)c2-c2ccncn2)CC1 [Example 6, 4-[3-(4-chlorophenyl)-4-pyrimidin-4-yl-1H-pyrazol-5-yl]-trans-cyclohexanol] |
| 0.0118 µM | CN(C)CC(=O)OCC(=O)N1CCC(c2[nH]nc(-c3ccc(Cl)cc3)c2-c2ccncn2)CC1 [Example 25, 2-{4-[3-(4-chlorophenyl)-4-pyrimidin-4-yl-1H-pyrazol-5-yl]piperidin-1-yl}-2-oxoethyl N,N-dimethylglycinate Hydrochloride] |

Continued, molecule first:

| Structure (SMILES) | IC50 |
| --- | --- |
| O=C(COP(=O)(O)O)N1CCC(c2[nH]nc(-c3ccc(Cl)cc3)c2-c2ccncn2)CC1 [Example 22, 2-{4-[3-(4-chlorophenyl)-4-pyrimidin-4-yl-1H-pyrazol-5-yl]piperidin-1-yl}-2-oxoethyl Dihydrogen Phosphate] | 0.00607 µM |
| Clc1ccc(-c2n[nH]c([C@H]3CC[C@H](NC4CCCCC4)CC3)c2-c2ccncn2)cc1 [Example 3, 4-[3-(4-chlorophenyl)-4-pyrimidin-4-yl-1H-pyrazol-5-yl]-N-cyclohexyltrans-cyclohexanamine] | 0.0452 µM |
| CC(C)N[C@H]1CC[C@H](c2[nH]nc(-c3ccc(F)c(C(F)(F)F)c3)c2-c2ccncn2)CC1 [Example 14, 4-{3-[4-fluoro-3-(trifluoromethyl)phenyl]-4-pyrimidin-4-yl-1H-pyrazol-5-yl}-N-isopropylcyclohexanamine] | 0.0723 µM |

Same assay, conditions: Table 2; additional pyrazole compounds, Examples 56-169; read-out: p38α Kinase Inhibition (IC50 in μM)

| IC50 | Structure (SMILES) |
| --- | --- |
| 0.247 µM | O=C(CO)N1CCC(c2[nH]nc(-c3cc(Cl)ccc3F)c2-c2ccncn2)CC1 [Example 105] |
| 0.974 µM | Cc1c(Cl)cccc1-c1n[nH]c(C2CCN(C(=O)CO)CC2)c1-c1ccncn1 [Example 88] |
| 0.133 µM | O=C(CO)N1CCC(c2[nH]nc(-c3ccc(Cl)c(Cl)c3)c2-c2ccncn2)CC1 [Example 69] |
| 3.64 µM | CN(C)CCNc1nccc(-c2c(-c3ccc(Cl)cc3)n[nH]c2C2CCN(C(=O)OC(C)(C)C)CC2)n1 [Example 143] |
| 22.8 µM | COc1cc(Cl)ccc1-c1n[nH]c(C2CCN(C(=O)COC(C)=O)CC2)c1-c1ccncn1 [Example 77] |
| 0.859 µM | CC(C)CCNc1nccc(-c2c(-c3ccc(Cl)cc3)n[nH]c2C2CCN(C(=O)CO)CC2)n1 [Example 100] |
| 0.207 µM | C[C@@H](O)C(=O)N1CCC(c2[nH]nc(-c3ccc(Cl)cc3F)c2-c2ccncn2)CC1 [Example 113] |
| 3.16 µM | O=C(CO)N1CCC(c2[nH]nc(-c3ccc(Cl)c(C(F)(F)F)c3)c2-c2ccncn2)CC1 [Example 78] |
| 0.297 µM | CSc1nccc(-c2c(-c3ccc(Cl)cc3)n[nH]c2C2CCN(C(=O)COC(C)=O)CC2)n1 [Example 93] |
| 0.416 µM | O=C([C@H](O)CO)N1CCC(c2[nH]nc(-c3ccc(Cl)cc3)c2-c2ccncn2)CC1 [Example 63] |
| 0.297 µM | O=C(CO)N1CCC(c2[nH]nc(-c3cccc(Cl)c3F)c2-c2ccncn2)CC1 [Example 106] |
| 0.255 µM | C[C@H](O)C(=O)N1CCC(c2[nH]nc(-c3cc(Cl)ccc3F)c2-c2ccncn2)CC1 [Example 110] |

The next lines start with the molecule.

| Structure (SMILES) | IC50 |
| --- | --- |
| N#Cc1ccc(Oc2nccc(-c3c(-c4ccc(Cl)cc4)n[nH]c3C3CCN(C(=O)CO)CC3)n2)cc1 [Example 94] | 0.108 µM |
| CN(C)CCOc1nccc(-c2c(-c3ccc(Cl)cc3F)n[nH]c2C2CCNCC2)n1 [Example 156] | 0.637 µM and 0.627 µM |
| O=C(CO)N1CCC(c2[nH]nc(-c3cc(C(F)(F)F)ccc3F)c2-c2ccncn2)CC1 [Example 102] | 0.454 µM |
| CN(C)CCOc1nccc(-c2c(-c3ccc(F)c(C(F)(F)F)c3)n[nH]c2C2CCNCC2)n1 [Example 155] | 0.527 µM |
| Fc1ccc(-c2n[nH]c(C3CCNCC3)c2-c2ccnc(NC3CCCC3)n2)cc1C(F)(F)F [Example 164] | 0.0225 µM |
| C[C@H](O)C(=O)N1CCC(c2[nH]nc(-c3cc(F)cc(Cl)c3)c2-c2ccncn2)CC1 [Example 108] | 1.62 µM |
| O=C(CO)N1CCC(c2[nH]nc(-c3cc(F)cc(F)c3)c2-c2ccncn2)CC1 [Example 76] | 6.2 µM |
| CN(C)CCNc1nccc(-c2c(-c3ccc(F)c(C(F)(F)F)c3)n[nH]c2C2CCNCC2)n1 [Example 146] | 0.261 µM |
| CC(C)(C)OC(=O)N1CCC(c2[nH]nc(-c3ccc(Cl)cc3)c2-c2ccnc(Oc3ccccc3C#N)n2)CC1 [Example 133] | 0.848 µM |
| CN(C)CCOc1nccc(-c2c(-c3cccc(Cl)c3)n[nH]c2C2CCN(C(=O)OC(C)(C)C)CC2)n1 [Example 137] | 9.34 µM |
| CN1CCC(c2[nH]nc(-c3ccc(Cl)cc3)c2-c2ccnc(NC3CCN(Cc4ccccc4)CC3)n2)CC1 [Example 152] | 0.075 µM |
| CS(=O)(=O)N1CCC(c2[nH]nc(-c3ccc(Cl)cc3F)c2-c2ccnc(NC3CCCC3)n2)CC1 [Example 159] | 0.0047 µM |
| C[C@@H](N[C@H]1CC[C@H](c2[nH]nc(-c3ccc(Cl)cc3)c2-c2ccncn2)CC1)c1ccccc1 [Example 123] | 0.0427 µM |
| N#Cc1cccc(Oc2nccc(-c3c(-c4ccc(Cl)cc4)n[nH]c3C3CCN(C(=O)CO)CC3)n2)c1 [Example 96] | 0.0697 µM |
| O=C(CO)N1CCC(c2[nH]nc(-c3cccc(C(F)(F)F)c3F)c2-c2ccncn2)CC1 [Example 103] | 5.46 µM |
| C[C@@H](N[C@H]1CC[C@H](c2[nH]nc(-c3ccc(Cl)cc3)c2-c2ccncn2)CC1)c1ccccc1 [Example 124] | 0.0452 µM |
| CN(C)CCOc1nccc(-c2c(-c3cccc(Cl)c3)n[nH]c2C2CCNCC2)n1 [Example 138] | 0.162 µM |
